# Source: patent US20040038233A1, “Diagnosis kit for mycobacterium species indentification and drug-resistance detection and manufacturing method thereof” (priority 2000, published 2004)
# Where two headings read alike, the source gives them in different places.
# Legend:
# [1] = system: Mycobacterium tuberculosis rpoB gene mutants; set-up: key to DRUG-SUSCEPTIBILITY: R represents resistance; S represents susceptibility; conditions: cited from earlier work
# [2] = system: Mycobacterium tuberculosis; assay type: cell-based
smiles,measurement,setting,value
"CO[C@H]1/C=C/O[C@@]2(C)Oc3c(C)c(O)c4c(c3C2=O)C2=NC3(CCN(CC(C)C)CC3)NC2=C(NC(=O)/C(C)=C\C=C\[C@H](C)[C@H](O)[C@@H](C)[C@@H](O)[C@@H](C)[C@H](OC(C)=O)[C@@H]1C)C4=O [rifabutin, Rifabutin]",DRUG-SUSCEPTIBILITY,[1]; 509 MUTANT (probe Mt509),S
same,DRUG-SUSCEPTIBILITY,[1]; 509 WILD TYPE (probe Wt509),"RFP-S, RBU-S"
same,DRUG-SUSCEPTIBILITY,[1]; 524 MUTANT (probe Mt524),"RFP-R, RBU-R"
same,DRUG-SUSCEPTIBILITY,[1]; 524 WILD TYPE (probe Wt524),"RFP-S, RBU-S"
same,DRUG-SUSCEPTIBILITY,[1]; 533 MUTANT (probe Mt533),"RFP-R, RBU-R"
same,DRUG-SUSCEPTIBILITY,[1]; 533 WILD TYPE (probe Wt533),"RFP-S, RBU-S"
same,drug-susceptibility of codon 526 mutants,"[1]; codon 526 His>Gln, Gly, Asn, Ala, or Cys",susceptibility
same,drug-susceptibility of codon 526 mutants,"[1]; codon 526 His>Tyr, Pro, Arg, or Asp",resistance
CO[C@H]1/C=C/O[C@@]2(C)Oc3c(C)c(O)c4c(O)c(c(/C=N/N5CCN(C)CC5)c(O)c4c3C2=O)NC(=O)/C(C)=C\C=C\[C@H](C)[C@H](O)[C@@H](C)[C@@H](O)[C@@H](C)[C@H](OC(C)=O)[C@@H]1C [rifampin],drug-susceptibility test result,[2],resistance
same,DRUG-SUSCEPTIBILITY,[1]; 509 MUTANT (probe Mt509),R
same,DRUG-SUSCEPTIBILITY,[1]; 509 WILD TYPE (probe Wt509),"RFP-S, RBU-S"
same,DRUG-SUSCEPTIBILITY,[1]; 524 MUTANT (probe Mt524),"RFP-R, RBU-R"
same,DRUG-SUSCEPTIBILITY,[1]; 524 WILD TYPE (probe Wt524),"RFP-S, RBU-S"
same,DRUG-SUSCEPTIBILITY,[1]; 533 MUTANT (probe Mt533),"RFP-R, RBU-R"
same,DRUG-SUSCEPTIBILITY,[1]; 533 WILD TYPE (probe Wt533),"RFP-S, RBU-S"
